Assay results: patent USRE40086E1, “Method for treating bacterial infection with novel 7-substituted-9-substituted amino 6-demethyl-6-deoxytetracyclines” (Wyeth Holdings Corporation, priority 1991, dated 2008)
Where a name gives a salt, the structure may show the parent alone.

What was measured:
Format in all cases: cell-based
[1] = system: E. faecalis UBMS 90-6 (tetM); assay: MIC, agar dilution; settings: Enterococcus faecalis
Neisseria gonorrhoeae = assay: MIC against clinical isolates (Table V, A and O); settings: Neisseria gonorrhoeae clinical isolates, (9) tested
Klebsiella pneumoniae = assay: MIC against clinical isolates (Table V, A and O); settings: Klebsiella pneumoniae clinical isolates, (10) tested
Bacteroides spp. = assay: MIC against clinical isolates (Table V, A and O); settings: Bacteroides spp. clinical isolates, (15) tested
Haemophilus influenzae = assay: MIC against clinical isolates (Table V, A and O); settings: (18) tested
E. coli UBMS 90-5 = assay: MIC, agar dilution (Table IA); settings: unit assumed
E. coli J3272 TetC = assay: MIC, agar dilution (Table IA); settings: unit assumed
[2] = system: Salmonella cholerasuis (Agricultural); assay: MIC vs recent clinical and agricultural isolates (Table V, KK); settings: [15] tested
E. coli BAJ9003 = assay: MIC, agar dilution (Table IA); settings: unit assumed
S. aureus ROSE (MP) = assay: MIC, agar dilution (Table IA); settings: unit assumed

SMILES | MIC [1] | MIC50 (Neisseria gonorrhoeae; read-out: MIC50) | MIC90 (Neisseria gonorrhoeae; read-out: MIC90) | MIC50 (Klebsiella pneumoniae; read-out: MIC50) | MIC90 (Klebsiella pneumoniae; read-out: MIC90) | MIC Range (Bacteroides spp.) | MIC50 (Bacteroides spp.; read-out: MIC50) | MIC90 (Bacteroides spp.; read-out: MIC90) | MIC50 (Haemophilus influenzae) | MIC90 (Haemophilus influenzae) | MIC Range (Haemophilus influenzae) | Antibacterial activity (MIC) (E. coli UBMS 90-5) | Antibacterial activity (MIC) (E. coli J3272 TetC) | MIC (range over isolates) [2] | Antibacterial activity (MIC) (E. coli BAJ9003) | Antibacterial activity (MIC) (S. aureus ROSE (MP))
CN(C)c1ccc(O)c2c1C[C@H]1C[C@H]3[C@H](N(C)C)C(O)=C(C(N)=O)C(=O)[C@@]3(O)C(O)=C1C2=O [Compound O, 7-(Dimethylamino)-6-demethyl-6-deoxytetracycline hydrochloride (minocycline hydrochloride), reference compound] | 8 µg/mL | 0.25 µg/mL | > 32 µg/mL | 1 µg/mL | 4 µg/mL | >0.15 to 16.00 µg/mL | 1 µg/mL | 4 µg/mL | 0.12 µg/mL | 0.25 µg/mL | 0.06 to 0.25 µg/mL |  |  |  |  | 
CN(C)CC(=O)Nc1cc(N(C)C)c2c(c1O)C(=O)C1=C(O)[C@]3(O)C(=O)C(C(N)=O)=C(O)[C@@H](N(C)C)C3CC1C2.Cl.Cl (stereo partly drawn) [KK, [4S-(4alpha,12aalpha)]-4,7-Bis(dimethylamino)-9-[[(dimethylamino)acetyl]amino]-1,4,4a,5,5a,6,11,12a-octahydro-3,10,12,12a-tetrahydroxy-1,11-dioxo-2-naphthacenecarboxamide dihydrochloride] |  |  |  |  |  |  |  |  |  |  |  | 0.25 µg/mL | 1 µg/mL | 0.5 to 16 µg/mL | 0.03 µg/mL | 1 µg/mL
